From patent US8597875B2, “Method for diagnosing liver toxicity with sex specific biomarkers” (BASF SE, priority 2008, dated 2013)

Legend:
female rats = test: Plasma metabolite profiling (GC-MS/LC-MS) for liver toxicity markers, 28-day gavage study, female rats; format: in vivo, rat; conditions: female rats
Experimental: (§1) A group of each 5 male and female rats was dosed once daily with the indicated compounds (see tables below) at 10 and 100 mg/kg body weight per gavage over 28 days. Additional groups of each 5 male and female animals served as controls. Before starting the treatment period, animals, which were 62-64 days old when supplied, were acclimatized to the housing and environmental conditions for 7 days. All animals of the animal population were kept under the same constant temperature (20-24±3° C.) and the same constant humidity (30-70%). Each animal of the animal population was kept in a separate cage. The animals of the animal population are fed ad libitum. The food to be used was be essentially free of chemical or microbial contaminants. Drinking water was also offered ad libitum. Accordingly, the water was be free of chemical and microbial contaminants as laid down in the European Drinking Water Directive 98/83/EG. The illumination period was 12 hours light followed by 12 hours darkness (12 hours light, from 6:00 to 18:00, and 12 hours darkness, from 18:00 to 6:00).
(§2) In the morning of day 7, 14, and 28, blood was taken from the retroorbital venous plexus from fasted anaesthetized animals. From each animal, 1 ml of blood was collected with EDTA as anticoagulant. The samples were be centrifuged for generation of plasma. All plasma samples were covered with a N2 atmosphere and then stored at −80° C. until analysis.
(§3) For mass spectrometry-based metabolite profiling analyses plasma samples were extracted and a polar and a non-polar fraction was obtained. For GC-MS analysis, the non-polar fraction was treated with methanol under acidic conditions to yield the fatty acid methyl esters. Both fractions were further derivatised with O-methyl-hydroxyamine hydrochloride and pyridine to convert Oxo-groups to O-methyloximes and subsequently with a silylating agent before analysis. In LC-MS analysis, both fractions were reconstituted in appropriate solvent mixtures. HPLC was performed by gradient elution on reversed phase separation columns. For mass spectrometric detection metanomics proprietary technology was applied which allows target and high sensitivity MRM (Multiple Reaction Monitoring) profiling in parallel to a full screen analysis.
(§4) Following comprehensive analytical validation steps, the data for each analyte were normalized against data from pool samples. These samples were run in parallel through the whole process to account for process variability. The significance of treatment group values specific for sex, dose group and metabolite was determined by comparing means of the treated groups to the means of the respective untreated control groups using WELCH-test. Normalized treatment group values and their significance were fed into a database for further statistics and data mining processes.
(§5) The changes of the group of plasma metabolites being indicative for liver toxicity after treatment of the rats are shown in the following tables: […]

male rats = test: Plasma metabolite profiling (GC-MS/LC-MS) for liver toxicity markers, 28-day gavage study, male rats; format: in vivo, rat; conditions: male rats
Experimental: as §1, §2, §3, §4, §5

## CN(C)C=O [Dimethylformamide]
Female rats; fh7 (day 7)
  1,2-Dioleoyl-sn-glycero-3-phosphatidyl-L-serine, change of plasma metabolite: 1.35
  4-Hydroxysphinganine, change of plasma metabolite: 1.79
  Arachidonic acid (C20:cis-[5,8,11,14]4), change of plasma metabolite: 2.04
  Behenic acid (C22:0), change of plasma metabolite: 2.15
  Ceramide (d18:1, C24:0), change of plasma metabolite: 1.64
  Cholesterol, change of plasma metabolite: 2.41
  Docosahexaenoic acid (C22:cis[4,7,10,13,16,19]6), change of plasma metabolite: 2.02
  Glycerol, lipid fraction, change of plasma metabolite: 1.64
  Glycerolphosphate, lipid fraction, change of plasma metabolite: 2.37
  Heptadecanoic acid (C17:0), change of plasma metabolite: 1.43
  ID28x493, change of plasma metabolite: 2.27
  Lignoceric acid (C24:0), change of plasma metabolite: 2.01
  Linoleic acid (C18:cis[9,12]2), change of plasma metabolite: 1.90
  Nervonic acid (C24:1), change of plasma metabolite: 2.51
  Palmitic acid (C16:0), change of plasma metabolite: 1.93
  Phosphate, lipid (Phospholipids), change of plasma metabolite: 1.51
  Stearic acid (C18:0), change of plasma metabolite: 1.62
  TAG No 1, change of plasma metabolite: 2.26
  Threonic acid, change of plasma metabolite: 1.49
  Tricosanoic acid (C23:0), change of plasma metabolite: 1.65
Female rats; fh14 (day 14)
  1,2-Dioleoyl-sn-glycero-3-phosphatidyl-L-serine, change of plasma metabolite: 1.69
  4-Hydroxysphinganine, change of plasma metabolite: 2.26
  Arachidonic acid (C20:cis-[5,8,11,14]4), change of plasma metabolite: 1.93
  Behenic acid (C22:0), change of plasma metabolite: 2.48
  Ceramide (d18:1, C24:0), change of plasma metabolite: 2.13
  Cholesterol, change of plasma metabolite: 2.23
  Docosahexaenoic acid (C22:cis[4,7,10,13,16,19]6), change of plasma metabolite: 2.21
  Glycerol, lipid fraction, change of plasma metabolite: 1.88
  Glycerolphosphate, lipid fraction, change of plasma metabolite: 1.97
  Heptadecanoic acid (C17:0), change of plasma metabolite: 1.64
  ID28x493, change of plasma metabolite: 3.14
  Lignoceric acid (C24:0), change of plasma metabolite: 2.29
  Linoleic acid (C18:cis[9,12]2), change of plasma metabolite: 2.33
  Nervonic acid (C24:1), change of plasma metabolite: 2.69
  Palmitic acid (C16:0), change of plasma metabolite: 2.08
  Phosphate, lipid (Phospholipids), change of plasma metabolite: 1.35
  Stearic acid (C18:0), change of plasma metabolite: 1.67
  TAG No 1, change of plasma metabolite: 2.87
  Threonic acid, change of plasma metabolite: 1.37
Female rats; fh28 (day 28)
  1,2-Dioleoyl-sn-glycero-3-phosphatidyl-L-serine, change of plasma metabolite: 1.47
  4-Hydroxysphinganine, change of plasma metabolite: 2.22
  Arachidonic acid (C20:cis-[5,8,11,14]4), change of plasma metabolite: 1.80
  Behenic acid (C22:0), change of plasma metabolite: 2.18
  Ceramide (d18:1, C24:0), change of plasma metabolite: 1.82
  Cholesterol, change of plasma metabolite: 2.08
  Docosahexaenoic acid (C22:cis[4,7,10,13,16,19]6), change of plasma metabolite: 1.76
  Glycerol, lipid fraction, change of plasma metabolite: 1.89
  Glycerolphosphate, lipid fraction, change of plasma metabolite: 2.35
  Heptadecanoic acid (C17:0), change of plasma metabolite: 1.48
  ID28x493, change of plasma metabolite: 2.02
  Lignoceric acid (C24:0), change of plasma metabolite: 2.45
  Linoleic acid (C18:cis[9,12]2), change of plasma metabolite: 2.37
  Nervonic acid (C24:1), change of plasma metabolite: 2.91
  Palmitic acid (C16:0), change of plasma metabolite: 1.93
  Phosphate, lipid (Phospholipids), change of plasma metabolite: 1.59
  Stearic acid (C18:0), change of plasma metabolite: 1.61
  TAG No 1, change of plasma metabolite: 3.81
  Threonic acid, change of plasma metabolite: 1.19
Male rats; mh7 (day 7)
  1,2-Dioleoyl-sn-glycero-3-phosphatidyl-L-serine, change of plasma metabolite: 1.31
  4-Hydroxysphingosine, change of plasma metabolite: 2.14
  Arachidonic acid (C20:cis-[5,8,11,14]4), change of plasma metabolite: 1.68
  Behenic acid (C22:0), change of plasma metabolite: 2.07
  Ceramide (d18:1, C24:0), change of plasma metabolite: 1.72
  Ceramide (d18:1, C24:1), change of plasma metabolite: 1.71
  Cholesterol, change of plasma metabolite: 2.01
  Docosahexaenoic acid (C22:cis[4,7,10,13,16,19]6), change of plasma metabolite: 1.96
  Eicosatrienoic acid, change of plasma metabolite: 2.55
  Glycerolphosphate, lipid fraction, change of plasma metabolite: 1.86
  Heptadecanoic acid (C17:0), change of plasma metabolite: 1.27
  Lignoceric acid (C24:0), change of plasma metabolite: 2.04
  Linoleic acid (C18:cis[9,12]2), change of plasma metabolite: 1.71
  Nervonic acid (C24:1), change of plasma metabolite: 2.53
  Palmitic acid (C16:0), change of plasma metabolite: 1.38
  Phosphatidylcholine (C18:2, C20:4), change of plasma metabolite: 1.18
  alpha-Tocopherol, change of plasma metabolite: 2.69
  myo-Inositol-2-monophosphate, lipid fraction, change of plasma metabolite: 1.92
Male rats; mh14 (day 14)
  1,2-Dioleoyl-sn-glycero-3-phosphatidyl-L-serine, change of plasma metabolite: 1.28
  4-Hydroxysphingosine, change of plasma metabolite: 2.07
  Arachidonic acid (C20:cis-[5,8,11,14]4), change of plasma metabolite: 1.74
  Behenic acid (C22:0), change of plasma metabolite: 2.15
  Ceramide (d18:1, C24:0), change of plasma metabolite: 1.40
  Ceramide (d18:1, C24:1), change of plasma metabolite: 1.70
  Cholesterol, change of plasma metabolite: 2.15
  Docosahexaenoic acid (C22:cis[4,7,10,13,16,19]6), change of plasma metabolite: 1.99
  Eicosatrienoic acid, change of plasma metabolite: 2.02
  Glycerolphosphate, lipid fraction, change of plasma metabolite: 1.67
  Heptadecanoic acid (C17:0), change of plasma metabolite: 1.51
  Lignoceric acid (C24:0), change of plasma metabolite: 2.22
  Linoleic acid (C18:cis[9,12]2), change of plasma metabolite: 1.70
  Nervonic acid (C24:1), change of plasma metabolite: 3.57
  Palmitic acid (C16:0), change of plasma metabolite: 1.64
  Phosphatidylcholine (C18:2, C20:4), change of plasma metabolite: 1.17
  alpha-Tocopherol, change of plasma metabolite: 2.46
  myo-Inositol-2-monophosphate, lipid fraction, change of plasma metabolite: 2.48
Male rats; mh28 (day 28)
  1,2-Dioleoyl-sn-glycero-3-phosphatidyl-L-serine, change of plasma metabolite: 1.41
  4-Hydroxysphingosine, change of plasma metabolite: 2.35
  Arachidonic acid (C20:cis-[5,8,11,14]4), change of plasma metabolite: 1.55
  Behenic acid (C22:0), change of plasma metabolite: 2.24
  Ceramide (d18:1, C24:0), change of plasma metabolite: 1.63
  Ceramide (d18:1, C24:1), change of plasma metabolite: 1.88
  Cholesterol, change of plasma metabolite: 1.81
  Docosahexaenoic acid (C22:cis[4,7,10,13,16,19]6), change of plasma metabolite: 2.06
  Eicosatrienoic acid, change of plasma metabolite: 1.60
  Glycerolphosphate, lipid fraction, change of plasma metabolite: 1.59
  Heptadecanoic acid (C17:0), change of plasma metabolite: 1.25
  Lignoceric acid (C24:0), change of plasma metabolite: 2.52
  Linoleic acid (C18:cis[9,12]2), change of plasma metabolite: 1.49
  Nervonic acid (C24:1), change of plasma metabolite: 3.39
  Palmitic acid (C16:0), change of plasma metabolite: 1.41
  Phosphatidylcholine (C18:2, C20:4), change of plasma metabolite: 1.26
  alpha-Tocopherol, change of plasma metabolite: 1.87
  myo-Inositol-2-monophosphate, lipid fraction, change of plasma metabolite: 2.31
